Experimental data taken from PubChem BioAssay (NCI).
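48-hour exposure; five concentrations; linearly interpolated endpoints. GI50 marks 50% less growth. TGI marks complete inhibition of growth.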

Key:
Assay in all cases: DTP human tumour cell line panel, 48 h
SF-539 CNS = tested on: SF-539 CNS
U251 CNS = tested on: U251 CNS
SNB-19 CNS = tested on: SNB-19 CNS
OVCAR-3 ovarian = tested on: OVCAR-3 ovarian
UACC-62 melanoma = tested on: UACC-62 melanoma
CCRF-CEM leukemia = tested on: CCRF-CEM leukemia
PC-3 prostate = tested on: PC-3 prostate
TK-10 renal = tested on: TK-10 renal
K-562 leukemia = tested on: K-562 leukemia
KM12 colon = tested on: KM12 colon
SK-MEL-28 melanoma = tested on: SK-MEL-28 melanoma
NCI-H460 lung = tested on: NCI-H460 lung
SNB-75 CNS = tested on: SNB-75 CNS
SK-MEL-5 melanoma = tested on: SK-MEL-5 melanoma
RPMI-8226 leukemia = tested on: RPMI-8226 leukemia
A549 NSCLC = tested on: A549 NSCLC
NCI-H23 lung = tested on: NCI-H23 lung
SW-620 colon = tested on: SW-620 colon
SF-295 CNS = tested on: SF-295 CNS
NCI/ADR-RES ovarian = tested on: NCI/ADR-RES ovarian
CAKI-1 renal = tested on: CAKI-1 renal
HOP-92 NSCLC = tested on: HOP-92 NSCLC
786-0 renal = tested on: 786-0 renal
MDA-MB-435 = tested on: MDA-MB-435
UO-31 renal = tested on: UO-31 renal
IGROV1 ovarian = tested on: IGROV1 ovarian
HCT-116 colon = tested on: HCT-116 colon
ACHN renal = tested on: ACHN renal
EKVX NSCLC = tested on: EKVX NSCLC
HCT-15 colon = tested on: HCT-15 colon
HOP-62 NSCLC = tested on: HOP-62 NSCLC
NCI-H522 lung = tested on: NCI-H522 lung
OVCAR-8 ovarian = tested on: OVCAR-8 ovarian
LOX IMVI melanoma = tested on: LOX IMVI melanoma
HCC-2998 colon = tested on: HCC-2998 colon
OVCAR-5 ovarian = tested on: OVCAR-5 ovarian
M14 melanoma = tested on: M14 melanoma
SK-MEL-2 melanoma = tested on: SK-MEL-2 melanoma
NCI-H226 lung = tested on: NCI-H226 lung
HL-60(TB) leukemia = tested on: HL-60(TB) leukemia
HS 578T breast = tested on: HS 578T breast
MDA-MB-231 breast = tested on: MDA-MB-231 breast
MALME-3M melanoma = tested on: MALME-3M melanoma
HT29 colon = tested on: HT29 colon
SF-268 CNS = tested on: SF-268 CNS
SN12C renal = tested on: SN12C renal
BT-549 breast = tested on: BT-549 breast
DU-145 prostate = tested on: DU-145 prostate
SR leukemia = tested on: SR leukemia
MOLT-4 leukemia = tested on: MOLT-4 leukemia
A498 renal = tested on: A498 renal
SK-OV-3 ovarian = tested on: SK-OV-3 ovarian
UACC-257 melanoma = tested on: UACC-257 melanoma
RXF 393 renal = tested on: RXF 393 renal
COLO 205 colon = tested on: COLO 205 colon
OVCAR-4 ovarian = tested on: OVCAR-4 ovarian
T-47D breast = tested on: T-47D breast

Compound CC1(C)CCC[C@]23C(=O)O[C@](O)(C(=O)C4=C[C@@](C)(/C=C/CCCc5ccc6ccc7cccc8ccc5c6c78)CC[C@@]42O)[C@@H]13 has a GI50 (SF-539 CNS) of 170 nM, a TGI (SF-539 CNS) of 322 nM and a GI50 (U251 CNS) of 170 nM. It also gave a TGI (U251 CNS) of 344 nM, a GI50 (SNB-19 CNS) of 188 nM and a TGI (SNB-19 CNS) of 414 nM. It also gave a GI50 (OVCAR-3 ovarian) of 174 nM, a TGI (OVCAR-3 ovarian) of 336 nM and a GI50 (UACC-62 melanoma) of 176 nM. For the same compound, the TGI (UACC-62 melanoma) was 343 nM, the GI50 (CCRF-CEM leukemia) was 199 nM and the TGI (CCRF-CEM leukemia) was 5870 nM. The GI50 (PC-3 prostate) was 166 nM, the TGI (PC-3 prostate) was 378 nM and the GI50 (TK-10 renal) was 196 nM. The TGI (TK-10 renal) was 423 nM, the GI50 (K-562 leukemia) was 300 nM and the TGI (K-562 leukemia) was 3190 nM. The GI50 (KM12 colon) was 154 nM, the TGI (KM12 colon) was 340 nM and the GI50 (SK-MEL-28 melanoma) was 144 nM. For the same compound, the TGI (SK-MEL-28 melanoma) was 317 nM, the GI50 (NCI-H460 lung) was 180 nM and the TGI (NCI-H460 lung) was 374 nM. For the same compound, the GI50 (SNB-75 CNS) was 149 nM, the TGI (SNB-75 CNS) was 284 nM and the GI50 (SK-MEL-5 melanoma) was 185 nM. For the same compound, the TGI (SK-MEL-5 melanoma) was 327 nM, the GI50 (RPMI-8226 leukemia) was 196 nM and the TGI (RPMI-8226 leukemia) was 571 nM. For the same compound, the GI50 (A549 NSCLC) was 202 nM, the TGI (A549 NSCLC) was 678 nM and the GI50 (NCI-H23 lung) was 178 nM. For the same compound, the TGI (NCI-H23 lung) was 376 nM, the GI50 (SW-620 colon) was 179 nM and the TGI (SW-620 colon) was 379 nM. The GI50 (SF-295 CNS) was 178 nM, the TGI (SF-295 CNS) was 336 nM and the GI50 (NCI/ADR-RES ovarian) was 221 nM. The TGI (NCI/ADR-RES ovarian) was 532 nM, the GI50 (CAKI-1 renal) was 183 nM and the TGI (CAKI-1 renal) was 364 nM. For the same compound, the GI50 (HOP-92 NSCLC) was 148 nM, the TGI (HOP-92 NSCLC) was 302 nM and the GI50 (786-0 renal) was 182 nM. For the same compound, the TGI (786-0 renal) was 343 nM, the GI50 (MDA-MB-435) was 173 nM and the TGI (MDA-MB-435) was 323 nM. For the same compound, the GI50 (UO-31 renal) was 156 nM, the TGI (UO-31 renal) was 291 nM and the GI50 (IGROV1 ovarian) was 175 nM. It also gave a TGI (IGROV1 ovarian) of 329 nM, a GI50 (HCT-116 colon) of 132 nM and a TGI (HCT-116 colon) of 299 nM. The GI50 (ACHN renal) was 156 nM, the TGI (ACHN renal) was 290 nM and the GI50 (EKVX NSCLC) was 216 nM. The TGI (EKVX NSCLC) was 485 nM, the GI50 (HCT-15 colon) was 148 nM and the TGI (HCT-15 colon) was 425 nM. It also gave a GI50 (HOP-62 NSCLC) of 215 nM, a TGI (HOP-62 NSCLC) of 563 nM and a GI50 (NCI-H522 lung) of 200 nM. The TGI (NCI-H522 lung) was 475 nM, the GI50 (OVCAR-8 ovarian) was 250 nM and the TGI (OVCAR-8 ovarian) was 1150 nM. The GI50 (LOX IMVI melanoma) was 164 nM, the TGI (LOX IMVI melanoma) was 310 nM and the GI50 (HCC-2998 colon) was 176 nM. For the same compound, the TGI (HCC-2998 colon) was 323 nM, the GI50 (OVCAR-5 ovarian) was 187 nM and the TGI (OVCAR-5 ovarian) was 376 nM. It also gave a GI50 (M14 melanoma) of 196 nM, a TGI (M14 melanoma) of 409 nM and a GI50 (SK-MEL-2 melanoma) of 217 nM. It also gave a TGI (SK-MEL-2 melanoma) of 471 nM, a GI50 (NCI-H226 lung) of 166 nM and a TGI (NCI-H226 lung) of 328 nM. For the same compound, the GI50 (HL-60(TB) leukemia) was 248 nM, the TGI (HL-60(TB) leukemia) was 649 nM and the GI50 (HS 578T breast) was 251 nM. For the same compound, the TGI (HS 578T breast) was 812 nM, the GI50 (MDA-MB-231 breast) was 197 nM and the TGI (MDA-MB-231 breast) was 431 nM. The GI50 (MALME-3M melanoma) was 177 nM, the TGI (MALME-3M melanoma) was 332 nM and the GI50 (HT29 colon) was 235 nM. For the same compound, the TGI (HT29 colon) was 603 nM, the GI50 (SF-268 CNS) was 208 nM and the TGI (SF-268 CNS) was 498 nM. For the same compound, the GI50 (SN12C renal) was 164 nM, the TGI (SN12C renal) was 339 nM and the GI50 (BT-549 breast) was 141 nM. For the same compound, the TGI (BT-549 breast) was 282 nM, the GI50 (DU-145 prostate) was 179 nM and the TGI (DU-145 prostate) was 326 nM. The GI50 (SR leukemia) was 292 nM, the GI50 (MOLT-4 leukemia) was 265 nM and the TGI (MOLT-4 leukemia) was 11200 nM. The GI50 (A498 renal) was 150 nM, the TGI (A498 renal) was 288 nM and the GI50 (SK-OV-3 ovarian) was 178 nM. It also gave a TGI (SK-OV-3 ovarian) of 324 nM, a GI50 (UACC-257 melanoma) of 224 nM and a TGI (UACC-257 melanoma) of 586 nM. The GI50 (RXF 393 renal) was 174 nM, the TGI (RXF 393 renal) was 335 nM and the GI50 (COLO 205 colon) was 183 nM. For the same compound, the TGI (COLO 205 colon) was 383 nM, the GI50 (OVCAR-4 ovarian) was 259 nM and the TGI (OVCAR-4 ovarian) was 616 nM. For the same compound, the GI50 (T-47D breast) was 167 nM and the TGI (T-47D breast) was 422 nM.
